Reference: PubChem BioAssay (NCI)
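How tested: cells in 96-well plates exposed to compound for 48 hours at five concentrations. At the GI50, growth is halved. At the TGI there is no net growth.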

Assays:
Experiment in all cases: NCI tumour cell line growth inhibition, 48 h
DU-145 prostate = test system: DU-145 prostate
K-562 leukemia = test system: K-562 leukemia
HT29 colon = test system: HT29 colon
SK-MEL-2 melanoma = test system: SK-MEL-2 melanoma
UACC-257 melanoma = test system: UACC-257 melanoma
HOP-62 NSCLC = test system: HOP-62 NSCLC
MDA-MB-435 = test system: MDA-MB-435
OVCAR-8 ovarian = test system: OVCAR-8 ovarian
M14 melanoma = test system: M14 melanoma
OVCAR-3 ovarian = test system: OVCAR-3 ovarian

| Structure (SMILES) | TGI (DU-145 prostate) [µM] | TGI (K-562 leukemia) [µM] | TGI (HT29 colon) [µM] | TGI (SK-MEL-2 melanoma) [µM] | TGI (UACC-257 melanoma) [µM] | TGI (HOP-62 NSCLC) [µM] | TGI (MDA-MB-435) [µM] | TGI (OVCAR-8 ovarian) [µM] | TGI (M14 melanoma) [µM] | TGI (OVCAR-3 ovarian) [µM] | GI50 (DU-145 prostate) [µM] | GI50 (K-562 leukemia) [µM] | GI50 (HT29 colon) [µM] | GI50 (SK-MEL-2 melanoma) [µM] | GI50 (UACC-257 melanoma) [µM] | GI50 (HOP-62 NSCLC) [µM] | GI50 (MDA-MB-435) [µM] | GI50 (OVCAR-8 ovarian) [µM] | GI50 (OVCAR-3 ovarian) [µM] | GI50 (M14 melanoma) [µM] |
| --- | --- | --- | --- | --- | --- | --- | --- | --- | --- | --- | --- | --- | --- | --- | --- | --- | --- | --- | --- | --- |
| COc1ccc(O)c(/C=N\Nc2ccccc2)c1 | > 100 | > 100 | 29.9 | > 100 | > 100 | > 100 | 43.8 | > 100 | 73.2 | – | – | – | – | – | – | – | – | – | – | – |
| O=S1Nc2cccc(C(F)(F)F)c2S1 (centres undefined) | – | > 100 | > 100 | 88.6 | > 100 | > 100 | – | > 100 | > 100 | > 100 | – | – | – | – | – | – | – | – | – | – |
| O=CN/C=C/c1ccccc1 | > 100 | > 31.6 | > 100 | > 100 | > 100 | > 100 | – | > 100 | > 100 | > 100 | – | – | – | – | – | – | – | – | – | – |
| C=CCCn1nc(-c2ccccc2)oc1=O | – | > 100 | > 100 | > 100 | > 100 | > 100 | – | > 100 | > 100 | > 100 | – | – | – | – | – | – | – | – | – | – |
| O=C1CCCc2ccc([N+](=O)[O-])c(O)c21 | – | > 100 | > 100 | > 100 | > 100 | > 100 | – | > 100 | > 100 | > 100 | – | – | – | – | – | – | – | – | – | – |
| C[C@@H]1CC[C@@]2(C)OC(c3ccccc3)[C@H](CO)N2C1=O (some centres undefined) | – | > 100 | > 100 | > 100 | > 100 | > 100 | – | > 100 | – | > 100 | – | – | – | – | – | – | – | – | – | – |
| COc1ccc2cc3c4cc(OC)c(OC)cc4ccn3c2c1 | – | > 100 | > 100 | > 100 | > 100 | > 100 | – | > 100 | – | – | – | – | – | – | – | – | – | – | – | – |
| O/N=C1/CCCC/C1=C\c1ccc(Cl)c(Cl)c1 | – | > 100 | 39.9 | – | – | > 100 | – | > 100 | 82.9 | 49.7 | – | – | – | – | – | – | – | – | – | – |
| COc1ccc(/C=C/c2onc3c(=O)n(C)nc(-c4ccccc4)c23)cc1 | – | > 100 | > 100 | – | – | > 100 | – | > 100 | > 100 | – | – | – | – | – | – | – | – | – | – | – |
| NC1=NN(c2ccccc2)C(=O)C1C(=O)C(=O)Nc1ccccc1 (centres undefined) | – | > 100 | > 100 | > 100 | > 100 | > 100 | – | > 100 | > 100 | > 100 | – | – | – | – | – | – | – | – | – | – |
| CCOc1ccccc1/C=N\N=C(N/N=C/c1ccccc1OCC)N/N=C/c1ccccc1OCC | > 100 | > 100 | > 100 | > 100 | > 100 | > 100 | > 100 | > 100 | – | 6.79 | 2.45 | 3.76 | 2.23 | 2.78 | 3.12 | 1.85 | 3.44 | 3.01 | 0.532 | – |
| O=C(O)c1cnc2c(ccc3[nH]cccc32)c1=O | – | > 100 | > 100 | > 100 | – | > 100 | – | > 100 | > 100 | > 100 | – | – | – | – | – | – | – | – | – | – |
| CCN1/C(=C/C(C)=C/c2sc3ccc4ccccc4c3[n+]2CC)Sc2ccc3ccccc3c21 | 0.631 | 18.4 | 0.233 | 0.586 | 0.0916 | 0.47 | – | 0.83 | 0.58 | 0.317 | 0.142 | 1.03 | 0.109 | 0.193 | 0.0115 | 0.192 | – | 0.067 | 0.148 | 0.196 |
| CCOC(=O)C1CC(=O)C=C2CCCCC21 (centres undefined) | – | > 100 | > 100 | > 100 | > 100 | > 100 | – | > 100 | > 100 | > 100 | – | – | – | – | – | – | – | – | – | – |
| CCCN(CCC)c1ccc(/C=N/NC(=O)c2cccnc2)c(C)c1 | 43.9 | 54.6 | 25.2 | – | 24.8 | 43.3 | 20.8 | 44.1 | – | 27.8 | 16.4 | 10.5 | 8.54 | – | 12.3 | 18.2 | 5.67 | 18 | 13 | – |
| CC(=O)N1c2ccccc2N(C(C)=O)C1c1ccc(C2N(C(C)=O)c3ccccc3N2C(C)=O)[nH]1 | – | > 100 | > 100 | – | > 100 | > 100 | – | > 100 | > 100 | > 100 | – | – | – | – | – | – | – | – | – | – |
| CCOC(=O)NC(=O)c1cn(CCSCCOC(=O)NCCCCCCNC(=O)OCCSCCn2cc(C(=O)NC(=O)OCC)c(=O)n(C)c2=O)c(=O)n(C)c1=O | – | – | > 100 | > 100 | > 100 | > 100 | – | 65.9 | – | > 100 | – | – | – | – | – | – | – | – | – | – |
| Cn1cnc([N+](=O)[O-])c1Sc1n[nH]c(-c2ccc(Cl)cc2)n1 | – | 51.3 | 42.5 | 29.9 | 39.6 | 54.9 | – | 32.4 | 33.5 | 40.4 | – | – | – | – | – | – | – | – | – | – |
| CCn1nc(C2CCN(C(=O)CCO)CC2)nc1-c1cnc(N)c(-c2nnc(C(C)(C)C)o2)n1 | > 100 | > 100 | 22 | > 100 | – | > 100 | > 100 | > 100 | > 100 | 38.4 | 16.7 | 27.8 | 0.63 | 30.9 | – | 5.01 | 13 | 38.2 | 7.81 | 27.7 |
| COc1ccc(C2(Cl)C(Cl)(C(F)(F)F)C2(Cl)C(F)(F)F)cc1 (centres undefined) | – | > 100 | 27.8 | 27.2 | 26.5 | 32.5 | – | 25.2 | 24.2 | 28.8 | – | – | – | – | – | – | – | – | – | – |
| Cc1cccc2c(=O)c3c(sc12)c(NCCCNCCO)nc1ccccc13 | 2.96 | – | 3.2 | 3.34 | 3.54 | 2.75 | 3.18 | 3.37 | 3.56 | 3.26 | 1.57 | – | 1.57 | 1.75 | 1.86 | 1.22 | 1.74 | 1.71 | 1.74 | 1.81 |
| CCCCCCOC(=O)CC1=C(C)/C(=C/c2[nH]c(-c3ccc[nH]3)cc2OC)N=C1C | 1.86 | – | 1.05 | 0.23 | 1.51 | 1.15 | 1.12 | 1.21 | 0.328 | 1.15 | 0.0728 | – | 0.0331 | 0.0532 | 0.394 | 0.0982 | 0.0463 | 0.238 | 0.168 | 0.0342 |
